According to ChEMBL document CHEMBL1201862, “PubChem BioAssay data set” (2004):
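Interpolation was linear, between the two tested concentrations surrounding the appropriate level; five concentrations were tested over 48 hours in 96-well plates. At the GI50, growth is halved.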 Active and inactive are the calls of the source. No stated cut-off is given here; in the data, active = GI50 up to about 1.1 µM and inactive = higher.

Experiments:
Test in all cases: NCI tumour cell line growth inhibition, 48 h
[1] = test system: 786-0
[2] = test system: COLO 205
[3] = test system: HL-60
[4] = test system: LOX IMVI
[5] = test system: M14
[6] = test system: MCF7
[7] = test system: MDA-MB-435
[8] = test system: MDA-N
[9] = test system: MOLT-4
[10] = test system: Malme-3M
[11] = test system: NCI-H23
[12] = test system: NCI-H460
[13] = test system: PC-3
[14] = test system: SK-MEL-2
[15] = test system: SN12C
[16] = test system: SNB-19
[17] = test system: TK-10
[18] = test system: UACC-257
[19] = test system: IGROV-1
[20] = test system: SF-539

Measured: GI50

COC(=O)c1ccc(OCCn2nnc(C(=O)NN)c2C(=O)NN)cc1
inactive: [1] > 100 µM | [2] > 100 µM | [3] > 100 µM | [4] > 100 µM | [5] > 100 µM | [6] > 100 µM | [7] > 100 µM | [8] > 100 µM | [9] > 100 µM | [10] > 100 µM | [11] > 100 µM | [12] 74 µM | [13] > 100 µM | [14] > 100 µM | [15] > 100 µM | [16] > 100 µM | [17] > 100 µM | [18] > 100 µM

CC1=CC[C@@]2(CO)[C@@H]([C@@H]1C)[C@H]1CC[C@@H]3[C@@]4(C)CC[C@H](O)C(C)(C)[C@@H]4CC[C@@]3(C)[C@]1(C)C[C@@H]2O
inactive: [1] 24.5 µM | [2] 17.3 µM | [3] 11.7 µM | [19] 29.3 µM | [4] 15.8 µM | [5] 28.2 µM | [6] 8.43 µM | [7] 40.2 µM | [8] 81.7 µM | [9] 21.3 µM | [10] 20.3 µM | [11] 17.5 µM | [12] 16.3 µM | [13] 13.3 µM | [15] 75.3 µM | [16] 35.1 µM | [17] 18.4 µM | [18] 27.2 µM

O=C(O)c1cc(Cl)cc(Cc2cc(Cl)cc(C(=O)O)c2O)c1O
inactive: [1] > 100 µM | [2] > 100 µM | [19] > 100 µM | [4] > 100 µM | [5] > 100 µM | [6] > 100 µM | [7] > 100 µM | [8] > 100 µM | [9] > 100 µM | [10] > 100 µM | [11] > 100 µM | [12] > 100 µM | [13] > 100 µM | [20] > 100 µM | [14] > 100 µM | [15] > 100 µM | [16] > 100 µM | [17] > 100 µM

CSc1ccc(/C=C2\N=C(c3ccccc3)N(c3nc4ccc(Sc5ccccc5)cc4[nH]3)C2=O)cc1
inactive: [1] 13.9 µM | [2] 13.9 µM | [3] 14.2 µM | [19] 36.5 µM | [4] 17.6 µM | [5] 15.3 µM | [6] 15.1 µM | [7] 5.28 µM | [8] 3.37 µM | [9] 22.3 µM | [10] 16.6 µM | [11] 26.3 µM | [12] 19.1 µM | [13] 21.8 µM | [14] 13 µM | [15] 21.7 µM | [16] 24.9 µM | [17] 16.9 µM | [18] 13.9 µM

N#Cc1nc(-c2ccccc2O)oc1N
inactive: [1] 70.1 µM | [3] > 100 µM | [19] 40 µM | [4] 53.7 µM | [5] > 100 µM | [6] 37.1 µM | [7] 99.8 µM | [8] > 100 µM | [9] 60.4 µM | [13] 91.2 µM | [14] > 100 µM | [15] 81.1 µM | [16] > 100 µM | [17] 63.8 µM | [18] > 100 µM

O=C1OC(c2ccc(O)c(Cl)c2)(c2ccc(O)c(Cl)c2)c2ccc(Br)c3cccc1c23.O=C1OC(c2ccc(O)c(Cl)c2)(c2ccc(O)c(Cl)c2)c2cccc3c(Br)ccc1c23
inactive: [1] 19 µM | [2] 7.05 µM | [19] 18.9 µM | [4] 20 µM | [5] 28.8 µM | [6] 15.2 µM | [7] 18 µM | [8] 21 µM | [9] 16.3 µM | [10] 18.9 µM | [11] 16.7 µM | [12] 16.4 µM | [13] 14.3 µM | [20] 18.2 µM | [14] 19.6 µM | [15] 15 µM | [16] 23.1 µM | [17] 17.1 µM | [18] 19.5 µM

CN1C(=O)c2c(ccc3c2OCO3)C2C(O)Cc3cc4c(cc3C21)OCO4 (configuration not stated)
inactive: [1] 4.17 µM | [2] 3.88 µM | [3] 2.4 µM | [19] 2.36 µM | [4] 9.12 µM | [5] 5.78 µM | [6] 7.5 µM | [7] 1.61 µM | [8] 1.91 µM | [9] 4.04 µM | [11] 5.58 µM | [12] 3.4 µM | [13] 2.58 µM | [20] 4.57 µM | [14] 2.47 µM | [15] 4.15 µM | [16] 3.21 µM | [17] 7.8 µM

Cc1cc2c(cc1Cl)Sc1nnc(Nc3ccccc3)n1S2(=O)=O
inactive: [1] 4.75 µM | [3] 1.98 µM | [19] 10 µM | [4] 3.85 µM | [5] 14.1 µM | [6] 8.02 µM | [7] 5.01 µM | [8] 6.05 µM | [9] 3.07 µM | [11] 3.59 µM | [12] 8.36 µM | [13] 5.7 µM | [20] 2.39 µM | [14] 4.84 µM | [17] 17.8 µM | [18] 16.6 µM

c1ccc(-c2cnc(-c3ccc(-c4ncc(-c5ccccc5)o4)cc3)o2)cc1
inactive: [1] > 100 µM | [2] > 100 µM | [3] > 100 µM | [19] > 100 µM | [4] > 100 µM | [5] > 100 µM | [6] > 100 µM | [7] > 100 µM | [8] > 100 µM | [9] > 100 µM | [10] > 100 µM | [11] > 100 µM | [12] > 100 µM | [13] > 100 µM | [15] > 100 µM | [16] > 100 µM | [17] > 100 µM | [18] > 100 µM

Cc1ccc2c(=O)c(C(=O)N(CCO)CCO)c[nH]c2n1
inactive: [1] > 100 µM | [2] > 100 µM | [3] > 100 µM | [19] > 100 µM | [4] > 100 µM | [5] > 100 µM | [6] > 100 µM | [7] > 100 µM | [8] > 100 µM | [9] > 100 µM | [10] > 100 µM | [11] > 100 µM | [12] > 100 µM | [13] > 100 µM | [14] > 100 µM | [15] > 100 µM | [16] > 100 µM | [17] > 100 µM | [18] > 100 µM

C=C(C)[C@@H]1C[C@H]2O[C@](O)(C(=C)CC(=O)/C=C(/C)C[C@@H]3OC(=O)[C@]24O[C@@H]34)[C@H]1O
inactive: [1] > 100 µM | [2] > 100 µM | [19] > 100 µM | [4] > 100 µM | [5] > 100 µM | [6] > 100 µM | [7] > 100 µM | [8] > 100 µM | [9] > 100 µM | [10] > 100 µM | [11] > 100 µM | [12] > 100 µM | [13] > 100 µM | [20] > 100 µM | [14] > 100 µM | [15] > 100 µM | [16] > 100 µM | [17] > 100 µM | [18] > 100 µM
